Test results reported in US8952024B2, “Herbicidal pyrimidone derivatives” (E I du Pont de Nemours and Company, priority 2009, dated 2015).

What was measured:
Assay in all cases: Test D pre-/postemergence plant response
Assay type in all cases: in vivo
[1] = test system: purslane (common purslane, Portulaca oleracea)
Text: (§1) Seeds of plant species selected from bermudagrass (Cynodon dactylon), Surinam grass (Brachiaria decumbens), large crabgrass (Digitaria sanguinalis), green foxtail (Setaria viridis), goosegrass (Eleusine indica), johnsongrass (Sorghum halepense), kochia (Kochia scoparia), morningglory (pitted morningglory, Ipomoea lacunosa), nutsedge (purple nutsedge, Cyperus rotundus), ragweed (common ragweed, Ambrosia elatior), black mustard (Brassica nigra), guineagrass (Panicum maximum), dallisgrass (Paspalum dilatatum), barnyardgrass (Echinochloa crus-galli), sandbur (southern sandbur, Cenchrus echinatus), sowthistle (common sowthistle, Sonchus oleraceous), prickly sida (Sida spinosa), Italian ryegrass (Lolium multiflorum), purslane (common purslane, Portulaca oleracea), signalgrass (broadleaf signalgrass, Brachiaria platyphylla), groundsel (common groundsel, Senecio vulgaris), chickweed (common chickweed, Stellaria media), dayflower (Virginia (VA) dayflower, Commelina virginica), bluegrass (annual bluegrass, Poa annua), naked crabgrass (Digitaria nuda), itchgrass (Rottboellia cochinchinensis), quackgrass (Elytrigia repens), field bindweed (Convolvulus arvensis), spanishneedles (Bidens bipinnata), mallow (common mallow, Malva sylvestris) and Russian thistle (Salsola kali), were planted into a blend of loam soil and sand and treated preemergence with test chemicals formulated in a non-phytotoxic solvent mixture which included a surfactant. At the same time, plants from these weed species were treated with postemergence applications of the test chemicals formulated in the same manner. Plants ranged in height from 2 to 18 cm (1- to 4-leaf stage) for postemergence treatments.
(§2) Treated plants and controls were maintained in a greenhouse for 14 to 21 days, after which time all species were visually evaluated and compared to controls. Plant response ratings, summarized in Table D, are based on a scale of 0 to 100 where 0 is no effect and 100 is complete control. A dash (-) response means no test result.

[2] = test system: large crabgrass (Digitaria sanguinalis)
Text: as §1, §2

[3] = test system: signalgrass (broadleaf signalgrass, Brachiaria platyphylla)
Text: as §1, §2

[4] = test system: itchgrass (Rottboellia cochinchinensis)
Text: as §1, §2

[5] = test system: chickweed (common chickweed, Stellaria media)
Text: as §1, §2

[6] = test system: barnyardgrass (Echinochloa crus-galli)
Text: as §1, §2

[7] = test system: guineagrass (Panicum maximum)
Text: as §1, §2

[8] = test system: black mustard (Brassica nigra)
Text: as §1, §2

[9] = test system: sowthistle (common sowthistle, Sonchus oleraceous)
Text: as §1, §2

[10] = test system: dallisgrass (Paspalum dilatatum)
Text: as §1, §2

[11] = test system: nutsedge (purple nutsedge, Cyperus rotundus)
Text: as §1, §2

[12] = test system: morningglory (pitted morningglory, Ipomoea lacunosa)
Text: as §1, §2

kochia (Kochia scoparia) = test system: kochia (Kochia scoparia)
Text: as §1, §2

[13] = test system: spanishneedles (Bidens bipinnata)
Text: as §1, §2

[14] = test system: Surinam grass (Brachiaria decumbens)
Text: as §1, §2

[15] = Postemergence, 31 g ai/ha, scale 0 to 100
[16] = Postemergence, 125 g ai/ha, scale 0 to 100 (0 no effect, 100 complete control)
[17] = Postemergence, 62 g ai/ha, scale 0 to 100 (0 no effect, 100 complete control)
[18] = Preemergence, 16 g ai/ha, scale 0 to 100, 0 no effect, 100 complete control
[19] = Preemergence, 31 g ai/ha, scale 0 to 100 (0 no effect, 100 complete control)
[20] = Preemergence, 62 g ai/ha, scale 0 to 100
[21] = Preemergence, 125 g ai/ha, scale 0 to 100
[22] = Postemergence, 16 g ai/ha, scale 0 to 100
[23] = Postemergence, 31 g ai/ha, scale 0 to 100 (0 no effect, 100 complete control)

O=C1CCCC(O)=C1C(=O)c1cnc(-c2cccs2)n(-c2ccccc2)c1=O [Compound 66]
Plant response rating, Purslane [1, 15]: 50 | Plant response rating, Purslane [1, 16]: 75 | Plant response rating, Purslane [1, 17]: 75 | Plant response rating, Purslane [1, 18]: 0 | Plant response rating, Purslane [1, 19]: 0 | Plant response rating, Purslane [1, 20]: 60 | Plant response rating, Purslane [1, 21]: 100 | Plant response rating, Crabgrass, Large [2, 22]: 20 | Plant response rating, Crabgrass, Large [2, 15]: 25 | Plant response rating, Crabgrass, Large [2, 16]: 35 | Plant response rating, Crabgrass, Large [2, 17]: 25 | Plant response rating, Crabgrass, Large [2, 18]: 15 | Plant response rating, Crabgrass, Large [2, 19]: 30 | Plant response rating, Crabgrass, Large [2, 20]: 50 | Plant response rating, Crabgrass, Large [2, 21]: 98 | Plant response rating, Signalgrass [3, 22]: 0 | Plant response rating, Signalgrass [3, 15]: 10 | Plant response rating, Signalgrass [3, 16]: 30 | Plant response rating, Signalgrass [3, 17]: 30 | Plant response rating, Signalgrass [3, 18]: 0 | Plant response rating, Signalgrass [3, 19]: 5 | Plant response rating, Signalgrass [3, 21]: 5 | Plant response rating, Itchgrass [4, 22]: 10 | Plant response rating, Itchgrass [4, 15]: 15 | Plant response rating, Itchgrass [4, 16]: 40 | Plant response rating, Itchgrass [4, 17]: 35 | Plant response rating, Itchgrass [4, 18]: 0 | Plant response rating, Itchgrass [4, 19]: 0 | Plant response rating, Itchgrass [4, 20]: 0 | Plant response rating, Itchgrass [4, 21]: 0 | Plant response rating, Chickweed [5, 16]: 95 | Plant response rating, Chickweed [5, 17]: 35 | Plant response rating, Chickweed [5, 18]: 0 | Plant response rating, Chickweed [5, 19]: 20 | Plant response rating, Chickweed [5, 20]: 90 | Plant response rating, Chickweed [5, 21]: 98 | Plant response rating, Barnyardgrass [6, 22]: 35 | Plant response rating, Barnyardgrass [6, 23]: 65 | Plant response rating, Barnyardgrass [6, 16]: 75 | Plant response rating, Barnyardgrass [6, 17]: 70 | Plant response rating, Barnyardgrass [6, 18]: 0 | Plant response rating, Barnyardgrass [6, 19]: 0 | Plant response rating, Barnyardgrass [6, 20]: 5 | Plant response rating, Barnyardgrass [6, 21]: 75 | Plant response rating, Guineagrass [7, 22]: 5 | Plant response rating, Guineagrass [7, 15]: 5 | Plant response rating, Guineagrass [7, 16]: 30 | Plant response rating, Guineagrass [7, 17]: 10 | Plant response rating, Guineagrass [7, 18]: 0 | Plant response rating, Guineagrass [7, 19]: 0 | Plant response rating, Guineagrass [7, 20]: 0 | Plant response rating, Guineagrass [7, 21]: 65 | Plant response rating, Black Mustard [8, 22]: 0 | Plant response rating, Black Mustard [8, 23]: 20 | Plant response rating, Black Mustard [8, 16]: 98 | Plant response rating, Black Mustard [8, 17]: 50 | Plant response rating, Black Mustard [8, 18]: 0 | Plant response rating, Black Mustard [8, 19]: 5 | Plant response rating, Black Mustard [8, 20]: 35 | Plant response rating, Black Mustard [8, 21]: 80 | Plant response rating, Sowthistle [9, 22]: 35 | Plant response rating, Sowthistle [9, 15]: 65 | Plant response rating, Sowthistle [9, 16]: 90 | Plant response rating, Sowthistle [9, 17]: 70 | Plant response rating, Sowthistle [9, 18]: 0 | Plant response rating, Sowthistle [9, 19]: 0 | Plant response rating, Sowthistle [9, 21]: 0 | Plant response rating, Dallisgrass [10, 22]: 35 | Plant response rating, Dallisgrass [10, 15]: 35 | Plant response rating, Dallisgrass [10, 16]: 60 | Plant response rating, Dallisgrass [10, 17]: 35 | Plant response rating, Dallisgrass [10, 18]: 0 | Plant response rating, Dallisgrass [10, 19]: 5 | Plant response rating, Dallisgrass [10, 20]: 5 | Plant response rating, Dallisgrass [10, 21]: 95 | Plant response rating, Nutsedge, Purple [11, 22]: 0 | Plant response rating, Nutsedge, Purple [11, 15]: 5 | Plant response rating, Nutsedge, Purple [11, 16]: 30 | Plant response rating, Nutsedge, Purple [11, 17]: 20 | Plant response rating, Nutsedge, Purple [11, 18]: 0 | Plant response rating, Nutsedge, Purple [11, 19]: 0 | Plant response rating, Nutsedge, Purple [11, 20]: 35 | Plant response rating, Nutsedge, Purple [11, 21]: 70 | Plant response rating, Morningglory [12, 22]: 65 | Plant response rating, Morningglory [12, 15]: 70 | Plant response rating, Morningglory [12, 16]: 90 | Plant response rating, Morningglory [12, 17]: 90 | Plant response rating, Morningglory [12, 18]: 0 | Plant response rating, Morningglory [12, 19]: 0 | Plant response rating, Morningglory [12, 20]: 90 | Plant response rating, Morningglory [12, 21]: 95 | Plant response rating, Kochia (kochia (Kochia scoparia); [15]): 25 | Plant response rating, Kochia (kochia (Kochia scoparia); [16]): 40 | Plant response rating, Kochia (kochia (Kochia scoparia); [17]): 25 | Plant response rating, Kochia (kochia (Kochia scoparia); [18]): 0 | Plant response rating, Kochia (kochia (Kochia scoparia); [19]): 65 | Plant response rating, Kochia (kochia (Kochia scoparia); [20]): 65 | Plant response rating, Kochia (kochia (Kochia scoparia); [21]): 90 | Plant response rating, Spanishneedles [13, 22]: 65 | Plant response rating, Spanishneedles [13, 15]: 70 | Plant response rating, Spanishneedles [13, 16]: 80 | Plant response rating, Spanishneedles [13, 17]: 80 | Plant response rating, Spanishneedles [13, 18]: 0 | Plant response rating, Spanishneedles [13, 19]: 60 | Plant response rating, Spanishneedles [13, 21]: 95 | Plant response rating, Surinam Grass [14, 15]: 60 | Plant response rating, Surinam Grass [14, 16]: 90 | Plant response rating, Surinam Grass [14, 17]: 90 | Plant response rating, Surinam Grass [14, 18]: 0 | Plant response rating, Surinam Grass [14, 19]: 80 | Plant response rating, Surinam Grass [14, 21]: 98
